{"source": "patent US5120726A", "about": "“Rapamycin hydrazones” (American Home Products Corporation, priority 1991, dated 1992)", "key": {"[1]": {"test_system": "pinch skin graft from male DBA/2 donors transplanted to male BALB/c recipients", "assay": "survival time of pinch skin graft", "assay_type": "in vivo", "settings": "intraperitoneally; mean ± S.D.", "experimental": "(§1) Immunosuppressive activity was evaluated in an in vitro standard pharmacological test procedure to measure lymphocyte proliferation (LAF) and in two in vivo standard pharmacological test procedures. The first in vivo procedure was a popliteal lymph node (PLN) test procedure which measured the effect of compounds of this invention on a mixed lymphocyte reaction and the second in vivo procedure evaluated the survival time of a pinch skin graft.\nThe second in vivo test procedure is designed to determine the survival time of pinch skin graft from male DBA/2 donors transplanted to male BALB/c recipients. The method is adapted from Billingham R. E. and Medawar P. B., J. Exp. Biol. 28:385-402, (1951). Briefly, a pinch skin graft from the donor is grafted on the dorsum of the recipient as a homograft, and an autograft is used as control in the same region. […] Untreated recipients serve as rejection control. The graft is monitored daily and observations are recorded until the graft becomes dry and forms a blackened scab. This is considered as the rejection day. The mean graft survival time (number of days±S.D.) of the drug treatment group is compared with the control group."}, "[2]": {"test_system": "cells from the thymus of normal BALB/c mice (lymphocyte proliferation)", "assay": "comitogen-induced thymocyte proliferation procedure (LAF), lymphocyte proliferation", "assay_type": "cell-based", "settings": "for IC50: Mus musculus, Lymphocyte, read-out: LAF IC50; for LAF (ratio): ratio vs rapamycin", "experimental": "as §1\nBriefly, cells from the thymus of normal BALB/c mice are cultured for 72 hours with PHA and IL-1 and pulsed with tritiated thymidine during the last six hours. […] Cells are harvested and incorporated radioactivity is determined. Inhibition of lymphoproliferation is assessed as percent change in counts per minute from non-drug treated controls. The results are expressed by the following ratio, or as the percent inhibition of lymphoproliferation at 1 μM. [formula]"}, "[3]": {"test_system": "mixed lymphocyte reaction (popliteal lymph node)", "assay": "popliteal lymph node (PLN) test procedure, effect on a mixed lymphocyte reaction", "assay_type": "in vivo, C3H mice (BALB/c donors)", "settings": "ratio vs rapamycin; p.o. daily Day 0 to Day 4", "experimental": "as §1\nA mixed lymphocyte reaction (MLR) occurs when lymphoid cells from genetically distinct animals are combined in tissue culture. Each stimulates the other to undergo blast transformation which results in increased DNA synthesis that can be quantified by the incorporation of tritiated thymidine. Since stimulating a MLR is a function of disparity at Major Histocompatibility antigens, an in vivo popliteal lymph node (PLN) test procedure closely correlates to host vs. graft disease. Briefly, irradiated spleen cells from BALB/c donors are injected into the right hind foot pad of recipient C3H mice. The drug is given daily, p.o. from Day 0 to Day 4. On Day 3 and Day 4, tritiated thymidine is given i.p., b.i.d. On Day 5, the hind popliteal lymph nodes are removed and dissolved, and radioactivity counted. […] Percent suppression is calculated using the non-drug treated animals as allogenic control. […]"}, "[4]": {"test_system": "adjuvant arthritis", "settings": "in vivo; cited from earlier work"}, "[5]": {"test_system": "Candida albicans", "settings": "both in vitro and in vivo; cited from earlier work"}, "[6]": {"test_system": "T-cell activation", "settings": "cited from earlier work"}, "[7]": {"test_system": "organ grafts in histoincompatible rodents", "settings": "cited from earlier work"}, "[8]": {"settings": "thymocytes cultured 72 hours with PHA and IL-1, tritiated thymidine last six hours"}}, "note": "Like-named read-outs stand apart in the source and are kept apart here.", "data": [{"smiles": "CO[C@H]1C[C@@H]2CC[C@@H](C)[C@@](O)(O2)C(=O)C(=O)N2CCCC[C@H]2C(=O)O[C@H]([C@H](C)C[C@@H]2CC[C@@H](O)[C@H](OC)C2)CC(=NNC(C)=O)[C@H](C)/C=C(\\C)[C@@H](O)[C@@H](OC)C(=O)[C@H](C)C[C@H](C)/C=C/C=C/C=C/1C", "note": "[Example 1, Rapamycin 27-(methylcarbonyl hydrazone)]", "values": [{"measurement": "Skin Graft survival time (days + SD)", "setting": "[1]", "value": "10.50 ± 0.6", "unit": "days"}, {"measurement": "IC50", "setting": "[2]; [8]", "value": 17.3, "unit": "nM"}, {"measurement": "LAF (ratio)", "setting": "[2]; [8]", "value": 0.50}]}, {"smiles": "CO[C@H]1C[C@@H]2CC[C@@H](C)[C@@](O)(O2)C(=O)C(=O)N2CCCC[C@H]2C(=O)O[C@H]([C@H](C)C[C@@H]2CC[C@@H](O)[C@H](OC)C2)CC(=NNC(=O)Nc2ccccc2)[C@H](C)/C=C(\\C)[C@@H](O)[C@@H](OC)C(=O)[C@H](C)C[C@H](C)/C=C/C=C/C=C/1C", "note": "[Example 2, Rapamycin 27-(4-Phenylsemicarbazone)]", "values": [{"measurement": "Skin Graft survival time (days + SD)", "setting": "[1]", "value": "7.83 ± 1.3", "unit": "days"}, {"measurement": "IC50", "setting": "[2]; [8]", "value": 19.2, "unit": "nM"}, {"measurement": "LAF (ratio)", "setting": "[2]; [8]", "value": 0.45}]}, {"smiles": "CO[C@H]1C[C@@H]2CC[C@@H](C)[C@@](O)(O2)C(=O)C(=O)N2CCCC[C@H]2C(=O)O[C@H]([C@H](C)C[C@@H]2CC[C@@H](O)[C@H](OC)C2)CC(=NNc2ccccn2)[C@H](C)/C=C(\\C)[C@@H](O)[C@@H](OC)C(=O)[C@H](C)C[C@H](C)/C=C/C=C/C=C/1C", "note": "[Example 3, Rapamycin 27-(2-Pyridinylhydrazone)]", "values": [{"measurement": "IC50", "setting": "[2]; [8]", "value": 15.9, "unit": "nM"}, {"measurement": "LAF (ratio)", "setting": "[2]; [8]", "value": 0.55}]}, {"smiles": "CO[C@H]1C[C@@H]2CC[C@@H](C)[C@@](O)(O2)C(=O)C(=O)N2CCCC[C@H]2C(=O)O[C@H]([C@H](C)C[C@@H]2CC[C@@H](O)[C@H](OC)C2)CC(=NNC(N)=O)[C@H](C)/C=C(\\C)[C@@H](O)[C@@H](OC)C(=O)[C@H](C)C[C@H](C)/C=C/C=C/C=C/1C", "note": "[Example 4, Rapamycin 27-semicarbazone]", "values": [{"measurement": "PLN (ratio)", "setting": "[3]", "value": 1.07}, {"measurement": "IC50", "setting": "[2]; [8]", "value": 37.2, "unit": "nM"}, {"measurement": "LAF (ratio)", "setting": "[2]; [8]", "value": 0.24}]}, {"smiles": "CO[C@H]1C[C@@H]2CC[C@@H](C)[C@@](O)(O2)C(=O)C(=O)N2CCCC[C@H]2C(=O)O[C@H]([C@H](C)C[C@@H]2CC[C@@H](O)[C@H](OC)C2)CC(=O)[C@H](C)/C=C(\\C)[C@@H](O)[C@@H](OC)C(=O)[C@H](C)C[C@H](C)/C=C/C=C/C=C/1C", "note": "[Rapamycin]", "values": [{"measurement": "Skin Graft survival time (days + SD)", "setting": "[1]", "value": "12.0 ± 1.7", "unit": "days"}, {"measurement": "effect in adjuvant arthritis model", "setting": "[4]", "value": "effective"}, {"measurement": "PLN (ratio)", "setting": "[3]", "value": 1}, {"measurement": "antifungal activity", "setting": "[5]", "value": "antifungal activity, particularly against Candida albicans, both in vitro and in vivo"}, {"measurement": "IC50", "setting": "[2]", "value": "8.5 to 8.8", "unit": "nM"}, {"measurement": "inhibition of T-cell activation", "setting": "[6]", "value": "inhibit T-cell activation"}, {"measurement": "survival time of organ grafts", "setting": "[7]", "value": "prolong survival time of organ grafts in histoincompatible rodents"}]}]}
